Assay results as given in ChEMBL document CHEMBL3885861, “Open TG-GATES”.

Organism: Rattus norvegicus
Experiment: Open TG-GATES - Regimen: Single
Format: toxicity, organism-based, Sprague-Dawley
Set-up: regimen Single, gender Male, age 6 weeks
Details: in vivo, po, 150 mg/kg, route gavage, dose level Middle; for APTT / Bas / Eos / Fbg / Hb / Ht / Lym / MCH / MCHC / MCV / Mono / Neu / PT / Plat / RBC / Ret / WBC: tissue Blood; for KIDNEY_L / KIDNEY_R / KIDNEY_TOTAL: tissue Kidney; for LIVER: tissue Liver; for A/G / ALP / ALT / AST / BUN / CRE / Ca / Cl / DBIL / GLC / IP / K / LDH / Na / PL / RALB / TBIL / TC / TG / TP / gamma-GTP: tissue Plasma

With `CC(=O)Oc1cc(C(C)C)c(OCCN(C)C)cc1C` [MOXISYLYTE] the TERMINAL_BW (3 h) was 205.7 g, the APTT (3 h) was 22.9 s and the Bas (3 h) was 0%. The Eos (3 h) was 1%, the Fbg (3 h) was 293 mg/dL and the Hb (3 h) was 13.5 g/dL. For the same compound, the Ht (3 h) was 39.8%, the Lym (3 h) was 75% and the MCH (3 h) was 21.3 pg. The MCHC (3 h) was 33.8%, the MCV (3 h) was 62.8 fL and the Mono (3 h) was 1.6%. For the same compound, the Neu (3 h) was 21.8%, the PT (3 h) was 15.9 s and the Plat (3 h) was 112.4 x10_4/uL. The RBC (3 h) was 634.4 x10_4/ul, the Ret (3 h) was 7.5% and the WBC (3 h) was 68.3 x10_2/uL. It also gave a KIDNEY_L (3 h) of 0.9 g, a KIDNEY_R (3 h) of 0.9 g and a KIDNEY_TOTAL (3 h) of 1.8 g. For the same compound, the LIVER (3 h) was 9.3 g, the A/G (3 h) was 1.3 and the ALP (3 h) was 1569.2 IU/L. It also gave an ALT (3 h) of 44 IU/L, an AST (3 h) of 81.4 IU/L and a BUN (3 h) of 13.2 mg/dL. For the same compound, the CRE (3 h) was 0.2 mg/dL, the Ca (3 h) was 10.5 mg/dL and the Cl (3 h) was 107.8 meq/L. The DBIL (3 h) was 0.004 mg/dL, the GLC (3 h) was 194 mg/dL and the IP (3 h) was 9.3 mg/dL. The K (3 h) was 4.2 meq/L, the LDH (3 h) was 315.8 IU/L and the Na (3 h) was 142 meq/L. For the same compound, the PL (3 h) was 128.4 mg/dL, the RALB (3 h) was 3.1 g/dL and the TBIL (3 h) was 0.03 mg/dL. For the same compound, the TC (3 h) was 75.8 mg/dL, the TG (3 h) was 28.8 mg/dL and the TP (3 h) was 5.4 g/dL. It also gave a gamma-GTP (3 h) of 1.2 IU/L, a TERMINAL_BW (6 h) of 206.6 g and an APTT (6 h) of 21.8 s. The Bas (6 h) was 0%, the Eos (6 h) was 1% and the Fbg (6 h) was 313.2 mg/dL. It also gave a Hb (6 h) of 13.3 g/dL, a Ht (6 h) of 38.6% and a Lym (6 h) of 72%. It also gave an MCH (6 h) of 20.8 pg, an MCHC (6 h) of 34.4% and an MCV (6 h) of 60.3 fL. It also gave a Mono (6 h) of 2.2%, a Neu (6 h) of 23.8% and a PT (6 h) of 15.8 s. The Plat (6 h) was 129.5 x10_4/uL, the RBC (6 h) was 641.2 x10_4/ul and the Ret (6 h) was 7.2%. It also gave a WBC (6 h) of 67.7 x10_2/uL, a KIDNEY_L (6 h) of 0.9 g and a KIDNEY_R (6 h) of 0.9 g. The KIDNEY_TOTAL (6 h) was 1.9 g, the LIVER (6 h) was 8.9 g and the A/G (6 h) was 1.2. It also gave an ALP (6 h) of 1449.6 IU/L, an ALT (6 h) of 39.4 IU/L and an AST (6 h) of 74.8 IU/L. The BUN (6 h) was 10.6 mg/dL, the CRE (6 h) was 0.2 mg/dL and the Ca (6 h) was 10.6 mg/dL. For the same compound, the Cl (6 h) was 108.4 meq/L, the DBIL (6 h) was 0.01 mg/dL and the GLC (6 h) was 181.8 mg/dL. For the same compound, the IP (6 h) was 9 mg/dL, the K (6 h) was 4.8 meq/L and the LDH (6 h) was 253.6 IU/L. For the same compound, the Na (6 h) was 140.8 meq/L, the PL (6 h) was 137.4 mg/dL and the RALB (6 h) was 3 g/dL. It also gave a TBIL (6 h) of 0.008 mg/dL, a TC (6 h) of 72.2 mg/dL and a TG (6 h) of 61.6 mg/dL. The TP (6 h) was 5.4 g/dL, the gamma-GTP (6 h) was 1 IU/L and the TERMINAL_BW (9 h) was 208.5 g. It also gave an APTT (9 h) of 21.5 s, a Bas (9 h) of 0% and an Eos (9 h) of 1%. It also gave a Fbg (9 h) of 308.2 mg/dL, a Hb (9 h) of 13.3 g/dL and a Ht (9 h) of 38.7%. For the same compound, the Lym (9 h) was 72%, the MCH (9 h) was 21.2 pg and the MCHC (9 h) was 34.5%. The MCV (9 h) was 61.4 fL, the Mono (9 h) was 2.4% and the Neu (9 h) was 23.8%. The PT (9 h) was 15.9 s, the Plat (9 h) was 118.6 x10_4/uL and the RBC (9 h) was 631.2 x10_4/ul. For the same compound, the Ret (9 h) was 8.4%, the WBC (9 h) was 93 x10_2/uL and the KIDNEY_L (9 h) was 1 g. The KIDNEY_R (9 h) was 1 g, the KIDNEY_TOTAL (9 h) was 1.9 g and the LIVER (9 h) was 8.5 g. For the same compound, the A/G (9 h) was 1.3, the ALP (9 h) was 1409.6 IU/L and the ALT (9 h) was 38.8 IU/L. For the same compound, the AST (9 h) was 70.2 IU/L, the BUN (9 h) was 11.4 mg/dL and the CRE (9 h) was 0.2 mg/dL. For the same compound, the Ca (9 h) was 10.5 mg/dL, the Cl (9 h) was 107.8 meq/L and the DBIL (9 h) was 0.008 mg/dL. It also gave a GLC (9 h) of 181.8 mg/dL, an IP (9 h) of 9.7 mg/dL and a K (9 h) of 4.3 meq/L. The LDH (9 h) was 240.2 IU/L, the Na (9 h) was 141.8 meq/L and the PL (9 h) was 135 mg/dL. For the same compound, the RALB (9 h) was 3.1 g/dL, the TBIL (9 h) was 0.026 mg/dL and the TC (9 h) was 75.6 mg/dL. For the same compound, the TG (9 h) was 47.4 mg/dL, the TP (9 h) was 5.6 g/dL and the gamma-GTP (9 h) was 1 IU/L. It also gave a TERMINAL_BW (24 h) of 221.8 g, an APTT (24 h) of 21.2 s and a Bas (24 h) of 0%. The Eos (24 h) was 0.8%, the Fbg (24 h) was 313.8 mg/dL and the Hb (24 h) was 13.5 g/dL. It also gave a Ht (24 h) of 38.6%, a Lym (24 h) of 79.6% and an MCH (24 h) of 21.3 pg. For the same compound, the MCHC (24 h) was 34.9%, the MCV (24 h) was 61.2 fL and the Mono (24 h) was 2%. It also gave a Neu (24 h) of 17.4%, a PT (24 h) of 15.8 s and a Plat (24 h) of 121.2 x10_4/uL. For the same compound, the RBC (24 h) was 632.2 x10_4/ul, the Ret (24 h) was 7.7% and the WBC (24 h) was 96.5 x10_2/uL. The KIDNEY_L (24 h) was 1 g, the KIDNEY_R (24 h) was 1 g and the KIDNEY_TOTAL (24 h) was 2 g. For the same compound, the LIVER (24 h) was 10.8 g, the A/G (24 h) was 1.2 and the ALP (24 h) was 1617.2 IU/L. It also gave an ALT (24 h) of 43.6 IU/L, an AST (24 h) of 70.8 IU/L and a BUN (24 h) of 17.2 mg/dL. The CRE (24 h) was 0.2 mg/dL, the Ca (24 h) was 11.3 mg/dL and the Cl (24 h) was 106 meq/L. For the same compound, the DBIL (24 h) was 0 mg/dL, the GLC (24 h) was 179.4 mg/dL and the IP (24 h) was 7.4 mg/dL. The K (24 h) was 4.3 meq/L, the LDH (24 h) was 247.2 IU/L and the Na (24 h) was 141.8 meq/L. For the same compound, the PL (24 h) was 163.2 mg/dL, the RALB (24 h) was 3.2 g/dL and the TBIL (24 h) was 0.006 mg/dL. The TC (24 h) was 81.6 mg/dL, the TG (24 h) was 178.8 mg/dL and the TP (24 h) was 5.9 g/dL. The gamma-GTP (24 h) was 1.4 IU/L.
